Where two headings read alike, the source gives them in different places.
Experiments:
[1] = target: T1, recombinant human catalytic domain of MMP-13 (Homo sapiens, UniProt P45452); experiment: In vitro fluorescence assay of MMP-13 activity; assay type: biochemical; conditions: Table 2; nM printed in one cell only
T1 construct: catalytic domain of MMP-13 (165 amino acids, residues 104-268, 19 kDa)

[2] = target: T2, purified recombinant human Aggrecanase-1 (rAgg1) (Homo sapiens, UniProt O75173); experiment: In vitro fluorescence screen for Aggrecanase-1 inhibitors; assay type: biochemical; conditions: for IC50: read-out: Agg1 IC50
T2 sequence (O75173 213-837): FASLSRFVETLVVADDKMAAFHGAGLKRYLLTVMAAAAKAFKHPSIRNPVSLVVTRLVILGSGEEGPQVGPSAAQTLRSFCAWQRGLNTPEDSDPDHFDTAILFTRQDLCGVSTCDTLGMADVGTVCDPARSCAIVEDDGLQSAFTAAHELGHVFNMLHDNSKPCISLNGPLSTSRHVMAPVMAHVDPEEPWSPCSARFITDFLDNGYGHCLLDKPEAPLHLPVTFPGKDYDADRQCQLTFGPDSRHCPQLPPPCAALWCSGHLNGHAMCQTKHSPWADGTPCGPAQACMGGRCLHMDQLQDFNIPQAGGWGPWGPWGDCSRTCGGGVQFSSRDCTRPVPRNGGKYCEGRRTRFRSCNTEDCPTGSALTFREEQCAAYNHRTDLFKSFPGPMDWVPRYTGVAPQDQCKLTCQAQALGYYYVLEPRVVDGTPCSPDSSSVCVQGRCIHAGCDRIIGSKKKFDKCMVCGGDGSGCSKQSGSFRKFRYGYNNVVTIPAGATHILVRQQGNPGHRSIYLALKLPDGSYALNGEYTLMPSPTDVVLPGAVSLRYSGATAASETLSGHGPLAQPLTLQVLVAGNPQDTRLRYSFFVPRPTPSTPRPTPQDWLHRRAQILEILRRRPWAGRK

[3] = target: T3, purified recombinant human Aggrecanase-2 (Ag2t-Phe628-Strep) (Homo sapiens, UniProt Q9UNA0); experiment: In vitro fluorescence screen for Aggrecanase-2 inhibitors; assay type: biochemical; conditions: Table 2; read-out: Agg 2 IC50
T3 construct: the form used is denoted as Ag2t-Phe628-Strep (MW=41,737)
T3 sequence (Q9UNA0 262-628): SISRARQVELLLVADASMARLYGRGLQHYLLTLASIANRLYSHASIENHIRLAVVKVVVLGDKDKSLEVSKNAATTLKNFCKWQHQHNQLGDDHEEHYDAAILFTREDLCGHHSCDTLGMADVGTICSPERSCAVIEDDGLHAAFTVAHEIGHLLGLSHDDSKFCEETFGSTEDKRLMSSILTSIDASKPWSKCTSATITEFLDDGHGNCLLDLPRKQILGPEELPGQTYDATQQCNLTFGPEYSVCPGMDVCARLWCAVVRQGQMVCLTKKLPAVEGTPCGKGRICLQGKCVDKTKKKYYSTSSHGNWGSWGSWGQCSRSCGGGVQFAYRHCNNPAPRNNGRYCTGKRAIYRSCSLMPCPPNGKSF

[4] = system: bovine articular cartilage treated with Interleukin 1 alpha (IL-1α); experiment: Bovine articular cartilage explant cultures: inhibition of degradation of proteoglycan; assay type: cell-based; conditions: inhibitory effect expressed as percentage, concentration not printed
Source text: This in vitro procedure was used to evaluate the effect and relative potencies of small molecule compounds to inhibit the degradation of proteoglycan in articular cartilage treated with Interleukin 1 alpha (IL-1α). Treatment of articular cartilage with IL 1α induces expression of a cascade of enzymes that initiates cartilage matrix degradation. This assay was utilized to select small molecule compounds that inhibit the enzyme activity and protects cartilage matrix degradation.
Articular cartilage: bovine metacarpal joints were disinfected with 10% Wescodyne followed by 70% ethanol. 6 mm articular cartilage discs were prepared and rinsed once in PBS and medium, respectively. The discs were cultured in a stirring flask with serum-free medium for 5 days for equilibrium with one medium change. Small molecule compounds: stock solutions of test small molecule compounds (usually at 5 mg/ml) were prepared in DMSO. Working solutions were diluted with DMSO and generally ranged from 0.1 μg/ml to 10 ug/ml. The DMSO stocks were stored at […]. Articular cartilage explant culture medium: DMEM, 2 mM glutamax, 100 U/ml of antibiotic and antimycotic, 50 μg/ml ascorbate and 10 mM Hepes (pH-7.0). Proteoglycan content-Dimethyl methylene blue (DMMB) solution: […] DMMB, 10 ml 100% ethanol, 29.5 ml of 1M NaOH, 3.5 ml of 98% formic acid and water to 1 L. Chondroitin sulphate sodium salt: 1.56-200 ug/ml serial dilutions.
For the explant culture, cartilage discs were cultured in serum-free medium for 48 h or more. Discs were weighed and transferred to a 96-well plate, 1 disc per-well. 0.2 ml of medium containing 5 ng/ml of IL-1 and different concentrations of compounds were added to each well, with 3 wells allocated for each treatment. The medium was collected at days 1, 2, & 3 and replaced accordingly.
For the DMMB assay, conditioned medium (CM) samples were diluted with medium. 10 ul of each standard or diluted sample was added in duplicate into a 96-well-plate and 200 μl of DMMB solution was added into each well. Absorbance at 520 nm was measured for each well. Proteoglycan contents in CM were calculated daily.
The proteoglycan contents are expressed as ug per mg of cartilage. The inhibitory effect of the compounds is expressed as percentage. (See, Tortorella, M. D. et al., Science 1999, 284, 1664-1666).

[5] = Table 1, first of two columns headed bovine
[6] = Table 1, second of two columns headed bovine

Compound | IC50 [1] | IC50 ([2]; Table 2) | IC50 [3] | Ki ([2]; Table 1, enzyme not given, column follows Agg1 IC50, read-out: Ki) | IC50 ([2]; Table 1) | bovine [4, 5] | bovine [4, 6]
CCCNC(=O)[C@H](CCC(=O)O)NC(=O)c1ccc2c(c1)Cc1ccccc1-2 [Example 8FFFFF, N^2-(9H-fluoren-2-ylcarbonyl)-N^1-propyl-L-α-glutamine] | > 100000 nM | 92 nM | 710 nM | – | – | – | –
O=C(O)CC[C@H](NC(=O)c1ccc(-c2ccccc2)cc1)C(=O)NCCCCc1ccccc1 [Example 8II, N^2-(1,1′-biphenyl-4-ylcarbonyl)-N^1-(4-phenylbutyl)-L-α-glutamine] | – | – | – | 39 nM | 44 nM | 75% | 40%
O=C(O)CC[C@H](NC(=O)c1ccc(-c2ccccc2)cc1)C(=O)NCc1ccc(OC(F)(F)F)cc1 [Example 8T, N^2-(1,1′-biphenyl-4-ylcarbonyl)-N^1-[4-(trifluoromethoxy)benzyl]-L-α-glutamine] | – | – | – | – | 300 nM | 51% | 20%
O=C(O)CC[C@H](NC(=O)c1ccc(-c2ccccc2)cc1)C(=O)NCc1cccc(OC(F)(F)F)c1 [Example 8U, N^2-(1,1′-biphenyl-4-ylcarbonyl)-N^1-[3-(trifluoromethoxy)benzyl]-L-α-glutamine] | – | – | – | – | 200 nM | 63% | 26%
O=C(O)CC[C@H](NC(=O)c1ccc(-c2ccccc2)cc1)C(=O)NC1c2ccccc2-c2ccccc21 [Example 8YYYYY, N^2-(biphenyl-4-ylcarbonyl)-N^1-9H-fluoren-9-yl-L-α-glutamine] | ~20000 nM | 87 nM | 2800 nM | – | – | – | –
CC(C)(Cc1ccc(F)cc1)NC(=O)[C@H](CCC(=O)O)NC(=O)c1ccc2c(c1)Cc1ccccc1-2 [Example 8ZZZZZ, N^2-(9H-fluoren-2-ylcarbonyl)-N^1-[2-(4-fluorophenyl)-1,1-dimethylethyl]-L-α-glutamine] | > 100000 nM | < 30 nM | 63 nM | – | – | – | –
COc1cc(COc2ccc(-c3ccc(C(=O)N[C@@H](CCC(=O)O)C(=O)NCc4cc(OC)c(OC)c(OC)c4)cc3)cc2)cc(OC)c1 [Example 18, N^2-({4′-[(3,5-dimethoxybenzyl)oxy]biphenyl-4-yl}carbonyl)-N-(3,4,5-trimethoxybenzyl)-L-α-glutamine] | ~1600 nM | 49 nM | 50 nM | – | – | – | –

Now from value to molecule, other results behind:

IC50 [1] | IC50 ([2]; Table 2) | IC50 [3] | Ki ([2]; Table 1, enzyme not given, column follows Agg1 IC50, read-out: Ki) | IC50 ([2]; Table 1) | Compound | bovine [4, 5] | bovine [4, 6]
~100000 nM | < 30 nM | 217 nM | – | – | COc1cccc(-c2ccc(C(=O)N[C@@H](CCC(=O)O)C(=O)NC(C)(C)Cc3ccccc3)cc2)c1 [Example 17I, N-(1,1-dimethyl-2-phenylethyl)-N^2-[(3′-methoxybiphenyl-4-yl)carbonyl]-L-α-glutamine] | – | –
11200 nM | 40 nM | 42 nM | – | – | COc1cc(CNC(=O)C(CCC(=O)O)NC(=O)c2ccc(-c3ccc4c(c3)OCO4)cc2)cc(OC)c1OC (stereo not shown) [Example 17N, 4-(4-Benzo[1,3]dioxol-5-yl-benzoylamino)-4-(3,4,5-trimethoxy-benzylcarbamoyl)-butyric acid] | – | –
6000 nM | 73 nM | 142 nM | – | – | COc1cc(CNC(=O)[C@H](CCC(=O)O)NC(=O)c2ccc(-c3ccc(C)c(F)c3)cc2)cc(OC)c1OC [Example 17R, N^2-[(3′-fluoro-4′-methylbiphenyl-4-yl)carbonyl]-N-(3,4,5-trimethoxybenzyl)-L-α-glutamine] | – | –
